Usually inhibition stands for the relative decrease from the control value, in per cent. Higher therefore signals strong suppression.

These results are taken from ChEMBL document CHEMBL3259557, “Structure-activity relationships and colorimetric properties of specific probes for the putative cancer biomarker human arylamine N-acetyltransferase 1” (Bioorg Med Chem, 2014).

System in the first series: not listed separately
Kind of series: physchem. Particulars: buffered solution containing 5% DMSO.
On to `O=C(NC1=C(c2ccoc2)C(=O)c2ccccc2C1=O)c1ccccc1`, for which the pKa at 100 µM came out at 12.1.
Consider `O=Cc1cccc(C2=C(NC(=O)c3ccccc3)C(=O)c3ccccc3C2=O)c1`, for which the pKa at 100 µM is 10.9.
Still for that read-out and setting: with `Cc1cc(C)cc(NC2=C(NS(=O)(=O)c3ccccc3)C(=O)c3cccc([N+](=O)[O-])c3C2=O)c1` the figure was 8.2; with `Cc1cc(C)cc(OC2=C(NS(=O)(=O)c3ccccc3)C(=O)c3ccccc3C2=O)c1`, 5.
For `COCCNC1=C(NS(=O)(=O)c2ccccc2)C(=O)c2ccccc2C1=O`, the pKa at 100 µM stood at 9.8.
Consider `O=C1C(NS(=O)(=O)c2ccccc2)=C(c2ccoc2)C(=O)c2ccccc21`, for which the pKa at 100 µM was determined as 5.
In the case of `Cc1cc(C)cc(NC2=C(NS(=O)(=O)c3c(F)cccc3F)C(=O)c3ccccc3C2=O)c1`, the pKa at 100 µM came to 8.4.
Regarding `Cc1cc(C)cc(NC2=C(NS(=O)(=O)c3ccccc3)C(=O)c3c(N)cccc3C2=O)c1`, the pKa at 100 µM came out at 8.4.
The same measure, in the same setting: to `O=C1C(NC2CCCC2)=C(NS(=O)(=O)c2ccccc2)C(=O)c2ccccc21` belongs 10.1.
Same read-out and setting: to `Cc1ccc(S(=O)(=O)NC2=C(Nc3cc(C)cc(C)c3)C(=O)c3ccccc3C2=O)cc1` belongs 9.7; to `O=C1C(NS(=O)(=O)c2ccccc2)=C(c2cccc(Cl)c2)C(=O)c2ccccc21`, 4.5.
`Cc1cc(C)cc(NC2=C(NS(=O)(=O)c3ccccc3)C(=O)c3c(cccc3[N+](=O)[O-])C2=O)c1` registered a pKa at 100 µM of 8.6.
On to `O=C1C(NS(=O)(=O)c2ccccc2)=C(Oc2ccc(Br)cc2)C(=O)c2ccccc21`, for which the pKa at 100 µM stood at 5.
On to `O=C1C(NS(=O)(=O)c2ccccc2)=C(c2ccccc2Cl)C(=O)c2ccccc21`, for which the pKa at 100 µM is 4.9.
Take `Nc1cccc2c1C(=O)C(NS(=O)(=O)c1ccccc1)=C(Nc1ccccc1)C2=O`: the pKa at 100 µM is 8.2.
Molecule `O=C1C(NCc2ccccc2)=C(NS(=O)(=O)c2ccccc2)C(=O)c2ccccc21` gave a pKa at 100 µM of 10.4.
The same measure, in the same setting: with `Cc1cc(C)cc(NC2=C(NS(=O)(=O)c3ccccc3)C(=O)c3cc([N+](=O)[O-])ccc3C2=O)c1` the figure was 8.
Still for that read-out and setting: with `O=C1C(NS(=O)(=O)c2ccccc2)=C(c2ccc(Cl)cc2)C(=O)c2ccccc21` the figure was 5.
`O=Cc1cccc(C2=C(NC(=O)Cc3ccccc3)C(=O)c3ccccc3C2=O)c1`: the pKa at 100 µM came out at 11.4.
Consider `Cc1cc(C)cc(NC2=C(NS(=O)(=O)c3cccc([N+](=O)[O-])c3)C(=O)c3ccccc3C2=O)c1`, for which the pKa at 100 µM was determined as 8.6.
As for `O=C1C(Nc2ccc(Br)cc2)=C(NS(=O)(=O)c2ccccc2)C(=O)c2ccccc21`, the pKa at 100 µM is 10.4.
`Cc1cc(C)cc(NC2=C(NS(=O)(=O)c3ccccc3C)C(=O)c3ccccc3C2=O)c1` registered a pKa at 100 µM of 9.3.
As to `Cc1cc(C)cc(NC2=C(NS(=O)(=O)C3CCCCC3)C(=O)c3ccccc3C2=O)c1`, the pKa at 100 µM came out at 10.6.
In turn, `Cc1cc(C)cc(NC2=C(NS(=O)(=O)c3ccccc3[N+](=O)[O-])C(=O)c3ccccc3C2=O)c1` registered a pKa at 100 µM of 7.9.
Still for that read-out and setting: to `O=Cc1cccc(C2=C(NS(=O)(=O)c3ccccc3)C(=O)c3ccccc3C2=O)c1` belongs 5; to `Cc1cc(C)cc(NC2=C(NS(=O)(=O)c3ccc(F)cc3)C(=O)c3ccccc3C2=O)c1`, 9.9.
On to `Cc1cc(C)cc(NC2=C(NS(=O)(=O)c3ccco3)C(=O)c3ccccc3C2=O)c1`, for which the pKa at 100 µM turned out to be 8.3.
In the case of `Cc1cc(C)cc(NC2=C(NS(C)(=O)=O)C(=O)c3ccccc3C2=O)c1`, the pKa at 100 µM turned out to be 9.5.
Same read-out and setting: to `O=C1C(Nc2ccccc2)=C(NS(=O)(=O)c2ccccc2)C(=O)c2ccccc21` belongs 9.5; to `O=Cc1ccc(C2=C(NS(=O)(=O)c3ccccc3)C(=O)c3ccccc3C2=O)cc1`, 4.6.
On to `Cc1cc(C)cc(NC2=C(NS(=O)(=O)Cc3ccccc3)C(=O)c3ccccc3C2=O)c1`, for which the pKa at 100 µM worked out at 10.
For `O=C1C(NS(=O)(=O)c2ccccc2)=C(Oc2ccccc2)C(=O)c2ccccc21`, the pKa at 100 µM was determined as 5.
In the case of `Cc1cc(C)cc(NC2=C(NS(=O)(=O)c3ccccc3)C(=O)c3ccc([N+](=O)[O-])cc3C2=O)c1`, the pKa at 100 µM is 7.5.
On the same count and under the same terms, to `O=C1C(Nc2ccccc2)=C(NS(=O)(=O)c2ccccc2)C(=O)c2c1cccc2[N+](=O)[O-]` belongs 8.4; to `O=C(Cc1ccccc1)NC1=C(c2ccoc2)C(=O)c2ccccc2C1=O`, 12.5; to `O=C1C(NS(=O)(=O)c2ccccc2)=C(c2ccco2)C(=O)c2ccccc21`, 5.1.
`Cc1cc(C)cc(NC2=C(NS(=O)(=O)c3ccccc3)C(=O)c3ccccc3C2=O)c1` displayed a pKa at 100 µM of 9.2.

For another series, the target named is T1, NAT2 (arylamine N-acetyltransferase 2) (Homo sapiens, UniProt P11245).
T1 sequence (P11245 whole entry): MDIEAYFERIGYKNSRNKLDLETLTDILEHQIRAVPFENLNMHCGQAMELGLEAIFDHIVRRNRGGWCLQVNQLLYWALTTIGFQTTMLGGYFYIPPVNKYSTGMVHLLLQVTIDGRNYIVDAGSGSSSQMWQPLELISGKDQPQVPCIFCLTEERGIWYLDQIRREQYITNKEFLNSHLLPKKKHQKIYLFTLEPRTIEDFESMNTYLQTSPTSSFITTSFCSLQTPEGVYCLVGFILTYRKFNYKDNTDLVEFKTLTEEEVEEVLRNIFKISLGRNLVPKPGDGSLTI
Kind of series: in vitro. The note with it: probe arylamine and AcCoA.
For `O=C(NC1=C(c2ccoc2)C(=O)c2ccccc2C1=O)c1ccccc1`, the inhibition at 30 µM was over 50%.
Turning to `O=Cc1cccc(C2=C(NC(=O)c3ccccc3)C(=O)c3ccccc3C2=O)c1`, the inhibition at 30 µM is over 50%.

In a further series the target is T2, NAT1 (arylamine N-acetyltransferase 1) (Homo sapiens, UniProt P18440).
T2 sequence (P18440 whole entry): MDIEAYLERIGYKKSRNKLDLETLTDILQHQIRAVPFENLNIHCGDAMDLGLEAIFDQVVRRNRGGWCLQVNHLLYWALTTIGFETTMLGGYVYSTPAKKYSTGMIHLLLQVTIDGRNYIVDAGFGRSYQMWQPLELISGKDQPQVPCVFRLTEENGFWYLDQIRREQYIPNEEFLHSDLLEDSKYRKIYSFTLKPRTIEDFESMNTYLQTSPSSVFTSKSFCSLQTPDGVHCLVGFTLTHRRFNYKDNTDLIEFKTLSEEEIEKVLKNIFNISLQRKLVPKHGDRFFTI
Kind of series: in vitro. Particulars: ZR-75-1 cells, probe arylamine and AcCoA.
As for `Cc1cc(C)cc(NC2=C(NS(=O)(=O)c3ccccc3)C(=O)c3c(N)cccc3C2=O)c1`, the inhibition at 1 µM was over 50%.
With `Cc1cc(C)cc(NC2=C(NS(=O)(=O)c3ccc(F)cc3)C(=O)c3ccccc3C2=O)c1`, the inhibition at 1 µM is over 50%.
Turning to `Cc1cc(C)cc(NC2=C(NS(=O)(=O)c3ccccc3)C(=O)c3cc(N)ccc3C2=O)c1`, the inhibition at 1 µM is over 50%.
In turn, `Cc1cc(C)cc(NC2=C(NS(=O)(=O)c3ccccc3)C(=O)c3ccccc3C2=O)c1` displayed an inhibition at 1 µM of over 50%.
